# Results published in ChEMBL document CHEMBL3507680, “University of Dundee, Gates Library screen for HepG2 cell viability”.
# Experiment: Human HepG2 cell viability assay in 384 well format
# Type: toxicity, cell-based
# Design: dose 125 nL, time 70.5 hour; concentration not given beside the values
# Details: HepG2 cells, read-out: Inhibition
row,SMILES,cytotoxicity at 70.5 h [%]
1,NC(=O)CC1CCN(C(=O)NCc2ccc(-c3ccn[nH]3)cc2)CC1,-11.3
2,Cc1ccc(C)c2c(=O)cc(CN3CC[C@@H](N)[C@H](O)C3)[nH]c12,-3.81
3,COc1cccc(C(=O)NCC(c2cccn2C)N2CCCC2)c1OC (configuration not stated),3.39
4,COCCNC(=O)Nc1cccc2c1CCN(S(C)(=O)=O)C2,-0.282
5,CCc1ccccc1OC1CN(C(=O)CN(C)Cc2cccnc2)C1,14
6,COCc1noc(C2(c3ccc(Cl)cc3)CCOCC2)n1,-6.8
7,O=C(c1cc(Cn2cnc3ccccc32)on1)N1CCOCC1,-17.3
8,Cc1n[nH]c(C)c1C1COCCN1C(=O)Cc1cccc(F)c1 (configuration not stated),-4.4
9,O=C(c1ccc(N2CCCC2)nn1)N1CCCC(n2cccn2)C1 (configuration not stated),-1.11
10,CCc1ccc(C(=O)N2CC(C(=O)NC(C)C)C3(CCOCC3)C2)cc1 (configuration not stated),-20.6
11,CC(=O)Nc1ccc(SCCCC(=O)NCC2CCCO2)nn1 (configuration not stated),-11.3
12,CC1CCN(S(=O)(=O)NC(C)Cc2ccco2)CC1 (configuration not stated),-4.62
13,CN1CCN(Cc2cnc3n2CCN(C(=O)c2ccccn2)C3)CC1,-12.3
14,CCn1cc(CN2CCC(c3ncc(Cl)cc3S(C)(=O)=O)CC2)c(C)n1,0.165
15,COCCN1CCO[C@H]2[C@H](OCc3cccc(C)n3)CC[C@@H]21,-2.63
16,CCCC(O)CN1CC(C)(C)CN(C(=O)CCc2ccccc2)CC1=O (configuration not stated),19.5
17,Cc1c(Br)c(C(F)F)nn1C(C)C(=O)O (configuration not stated),-10.2
18,CC(C(=O)NCCCN1CCCCCC1=O)n1cncn1 (configuration not stated),-0.359
19,CCn1nc2c(cc1=O)CN(CC(=O)Nc1cc(C)no1)CC2,-0.888
20,Cc1cc(C)n(C2CN(Cc3nc4cc(Cl)ccc4n3C)C2)n1,4.28
21,COCCC(=O)N1CCC(c2nnc(-c3ccsc3)o2)CC1,-6.73
22,CCn1ccnc1CNC1CC(=O)N(CCc2cccc(Cl)c2)C1 (configuration not stated),-2.81
23,O=C(NCc1ccc(Cl)cc1)C1CCCN(c2ccc3nncn3n2)C1 (configuration not stated),-9.54

row,SMILES,cytotoxicity at 70.5 h [%]
1,Cc1cnc(C(=O)N2C[C@H](N3CCOCC3)[C@@H]3OCCC[C@@H]32)cn1,-13.1
2,CCN(CC(C)C#N)C(=O)CSc1ccc(C(F)(F)F)cn1 (configuration not stated),-3.1
3,O=C(NC1CC1)c1cn(C2CCN(c3cc(C4CC4)ncn3)CC2)nn1,30
4,COc1cc(F)ccc1-c1cc(CO)ccn1,-8.15
5,CC(C)(C)CN1CCCC12Cc1ccccc1CNC2=O (configuration not stated),-7.71
6,COc1cccc(-c2cc(CN)ccc2F)c1F,-8.44
7,COC1CCN(c2ccc(NC(=O)Cn3cccn3)cc2)CC1,-8
8,CC(=O)N1[C@H](CN(C)C)C[C@@H]2CN(C(=O)c3cncc(C)c3)CC[C@@H]21,-10.6
9,Cc1nc(CC(=O)N2CCC[C@H]2c2nc(C(C)C)no2)cs1,-1.93
10,CC(=O)c1nn(-c2ccccc2Cl)c(C)c1C(C)=O,-10.3
11,Cc1cn2nc(N3CCN(Cc4cc(C)on4)CC3)sc2n1,-2.77
12,Fc1ccc(OCCNCCn2cccn2)cc1,-9.89
13,O=S(=O)(NCC1COc2ccccc2C1)N1CCCCC1 (configuration not stated),-9.29
14,CN(C)Cc1nc(-n2cnc(C(=O)NCC3CC3)c2)n2ccccc12,-3.22
15,CCn1cc(CNC2CC(=O)N(CCc3cccc(Cl)c3)C2)cn1 (configuration not stated),-3.19
16,Cn1cnnc1SCCCNC(=O)Nc1ncccn1,-2.46
17,CC(C)N(C)CC(=O)N(C)C(c1cccc(F)c1)c1ccccn1 (configuration not stated),40.9
18,O=C1CCCCCN1Cc1cccc(OC(F)F)c1,-5.05
19,Cc1cccc2[nH]c(C3CCN(C(=O)c4cccnn4)CC3)nc12,16.6
20,CC[C@H](C)[C@H](NC(=O)c1ccc(-n2cnnn2)cc1)C(=O)OC,10.1
21,CCOc1ncccc1NC(=O)c1ccc(C(C)=O)s1,-14.4
22,CO[C@@H]1CC[C@H]2[C@H]1OCCN2C(=O)COc1ccc(F)cc1,-16.9
23,Cc1ccc(C2(O)CCN(C(=O)CCn3ccc(=O)[nH]c3=O)CC2)nc1,-10.1

row,SMILES,cytotoxicity at 70.5 h [%]
1,Cc1nc(C)n(CC2CCCN2CC(=O)Nc2ccncc2)n1 (configuration not stated),-4.71
2,CC(C)[C@H](NC(=O)NC1CCS(=O)(=O)C1)C(=O)NCc1ccc(Cl)cc1 (some centres not stated),-18.2
3,O=C(c1ccnnc1)N1C[C@H](OCC2CC2)[C@H]2COC[C@H]21,-13.5
4,Cc1nccn1C1CCCN(C(=O)c2ccc3c(c2)nnn3C)C1 (configuration not stated),-6.07
5,O=C(c1ccccn1)N1CCCC(c2nccn2CC2CCC2)C1 (configuration not stated),18.9
6,CN(CCCOc1ccc(F)cc1)S(=O)(=O)c1cnn(C)c1,-8.61
7,O=C(Nc1cc(F)ccc1OCC1CCCO1)c1ccc(O)nc1 (configuration not stated),-6.69
8,COc1ncccc1CN1C[C@H]2CCN(c3ccc(C)nn3)C[C@H]2C1,20
9,CCn1cc(CN2CCCN(C(=O)CCc3cccs3)CC2)cn1,-12.3
10,CC(c1nccs1)n1cc(-c2cc(CN3CCCCC3)cs2)nn1 (configuration not stated),-4.83
11,CC(C)=CCN1C(=O)[C@H]2CC[C@@H]1CN(C(=O)CCc1n[nH]c(C)c1C)C2,11.2
12,CC(C)(C)c1nc(CN(Cc2cccnc2)C2CN3CCC2CC3)no1 (configuration not stated),-1.01
13,Brc1cccc(-c2noc(CN3CCOCC3)n2)c1,-2.61
14,CN1CCN(C(=O)N2CCCC(c3nccn3CC3CCC3)C2)CC1 (configuration not stated),-15.8
15,Cc1ccc(F)cc1NC(=O)NCC(C)N1CCOCC1 (configuration not stated),9.4
16,CC(=O)c1ccc(C(=O)NCc2ccnc(N(C)C)n2)cc1,5.65
17,Cc1nccn1C1CCCN(C(=O)c2ccc(-n3cccn3)nc2)C1 (configuration not stated),0.896
18,CCN1C[C@@H]2CN(c3cc(OC)ncn3)CCC[C@]2(C(=O)O)C1,-10.9
19,Cc1noc(C)c1C(=O)N1CCCC(c2c(C)c(=O)nc3n2CCC3)C1 (configuration not stated),-9.85
20,Cc1c[nH]c(CN2CCCCC2CCN(C)C)c(C)c1=O (configuration not stated),-10.5
21,Cc1ccc(OCC2CCCN(C(=O)Cn3ccccc3=O)C2)cc1 (configuration not stated),25
22,CCc1cnc(CN(C(C)=O)C2CCN(CCc3ccccn3)C2)o1 (configuration not stated),1.82
23,CC(C)(C)n1ncc2c1NC(=O)CC2c1ccc(C(=O)O)cc1 (configuration not stated),-13.3

row,SMILES,cytotoxicity at 70.5 h [%]
1,O=C(NCCCc1nc(=O)[nH][nH]1)c1ccc(Cl)cn1,-15.2
2,CN(CC(=O)NC1(C)CCS(=O)(=O)C1)Cc1ccc(F)c(F)c1 (configuration not stated),3.42
3,Cc1nc(C)n(C2CCCN(C(=O)CCn3ccnn3)C2)n1 (configuration not stated),0.306
4,Cc1ccc(NC(=O)Cn2cc(I)cn2)cc1,15.3
5,CCS(=O)(=O)CC(=O)NC1CCc2nccn2C1 (configuration not stated),-4.08
6,CCNC(=O)[C@@H]1C[C@H](NC(=O)c2ccccc2C#N)CN1CCCSC,-2.96
7,Cc1cccc(CN2CC[C@@H]3[C@@H]2CCN3C(=O)c2ccno2)n1,-4.67
8,CCc1nccn1C1CCCN(C(=O)c2ccoc2C)C1 (configuration not stated),1.06
9,O=C(c1cnc2[nH]c(=O)[nH]c(=O)c2c1)N1CCCC1C1CCCCC1 (configuration not stated),-5.02
10,CC(C)N(CC1CCCN(Cc2ccon2)C1)C(=O)OC(C)(C)C (configuration not stated),-2.83
11,CCc1cc(CNCc2ccccc2N(C)C2CCN(C)CC2)on1,-1.28
12,CC(C)c1nccn1CCCNC(=O)c1ccc(-c2cn[nH]c2)nc1,-3.19
13,O=C(CSC1CCc2ccccc2NC1=O)NCCO (configuration not stated),2.81
14,CCCc1cc(N2CCC(NC3CCS(=O)(=O)C3)CC2)nc(C)n1 (configuration not stated),-4.65
15,Cc1cccc(CC(=O)N2CCOCC2c2c(C)n[nH]c2C)c1 (configuration not stated),-18.3
16,COc1cccc(C(O)CN2CCN(C(=O)c3ccsc3)CC2)c1 (configuration not stated),-5.91
17,CN(C)CC(=O)N1Cc2ncn(C)c2C(COCC2CCOCC2)C1 (configuration not stated),-6.48
18,CC(C)COC(C)C(=O)NCc1ccc(Cn2ccnc2)cc1 (configuration not stated),-8.31
19,CN1CCN([C@@H]2CN(C(=O)c3ccsc3)[C@@H]3CCCO[C@H]23)CC1,-2.84
20,O=C(NCc1ccncc1)N(Cc1ccc(F)cc1F)C1CC1,-5.41
21,Cc1cncc(C(=O)N2CCC3(CC2)C(=O)Nc2ccccc23)c1,-7.06
22,O=C(Cn1cccc2oc(=O)nc1-2)NCC1Cc2ccccc2O1 (configuration not stated),-5.36
23,Cc1nc2ccccc2n1Cc1cc(C(=O)N(C)C2CCOC2)n[nH]1 (configuration not stated),-12.8

row,SMILES,cytotoxicity at 70.5 h [%]
1,CN(C)C(=O)CCC[S+]([O-])Cc1ccc(F)c(F)c1 (configuration not stated),13.1
2,Cc1cnn(CCNCc2ccc(OCc3cccnc3)cc2)c1,-4.14
3,COc1ccc(CN2CCN(c3nccnc3OC)CC2=O)cc1,-4.78
4,CCCS(=O)(=O)N1C[C@@H](c2ccccc2)[C@@]2(CCNC2=O)C1,5.81
5,Cc1ccc(CC(=O)N2C[C@@H](CN(C)C)[C@@H](CO)C2)cc1C,-2.62
6,Cc1noc(C)c1CN1C[C@@H]2COC[C@H](C(=O)N3CCCCO3)[C@@H]2C1,-13
7,O=C(c1ccco1)N1CCOC2(COCCN(c3ncccn3)C2)C1 (configuration not stated),-14.8
8,Cc1cc(C)n(CC(=O)N(C)Cc2csc(-c3cccs3)n2)c(=O)n1,6.7
9,CC/C(C)=C/CCN1CCN(C)C2(CCNC(=O)CC2)C1 (configuration not stated),-6.34
10,CNc1nc(CNC(=O)Nc2ccccc2SC)cs1,3.31
11,CC(C)c1nc(C2CCCN(C(=O)CN(C)S(C)(=O)=O)C2)no1 (configuration not stated),5.74
12,CC(C)(C#N)c1ccccc1CN(CCO)Cc1ccsc1,-7.26
13,Cn1c(=O)[nH]c2cc(C(=O)OCC(F)F)ccc21,19.9
14,O=C(c1cc(-c2cccs2)cs1)N1CCOCC1,-8.23
15,CCn1ccnc1CN1CCC(CCC(=O)Nc2ccccc2Cl)CC1,11.7
16,CCN(CCn1c(=O)oc2ccccc21)CC1CCOCC1,-2.32
17,CC(C)(C)c1ccc(-n2ncc3c2CCCC3N)cc1 (configuration not stated),-3.43
18,COc1ccccc1C(=O)NC(C)CC(=O)O (configuration not stated),-7.64
19,CN1CCOC(CNC(=O)CCCc2ccccc2)C1 (configuration not stated),-4.54
20,Cn1ccc(C(=O)Nc2cc(F)ccc2OCC2CCCO2)cc1=O (configuration not stated),-8.3
